Tests used:
[1] = molecular target: Hepatocyte growth factor receptor (Homo sapiens) (UniProt P08581); test: Inhibition of human MET cytoplasmic domain expressed in baculovirus assessed as substrate phosphorylation using fluorescence-labelled peptides as substrate at 0.2 uM after 90 mins by microfluidic peptide phosphorylation assay
[2] = molecular target: T1, Protein kinase C epsilon type (Homo sapiens) (UniProt Q02156); test: Inhibition of human truncated PKC epsilon expressed in baculovirus assessed as substrate phosphorylation using fluorescence-labelled peptides as substrate at […] after 90 mins by microfluidic peptide phosphorylation assay
T1 sequence (whole entry): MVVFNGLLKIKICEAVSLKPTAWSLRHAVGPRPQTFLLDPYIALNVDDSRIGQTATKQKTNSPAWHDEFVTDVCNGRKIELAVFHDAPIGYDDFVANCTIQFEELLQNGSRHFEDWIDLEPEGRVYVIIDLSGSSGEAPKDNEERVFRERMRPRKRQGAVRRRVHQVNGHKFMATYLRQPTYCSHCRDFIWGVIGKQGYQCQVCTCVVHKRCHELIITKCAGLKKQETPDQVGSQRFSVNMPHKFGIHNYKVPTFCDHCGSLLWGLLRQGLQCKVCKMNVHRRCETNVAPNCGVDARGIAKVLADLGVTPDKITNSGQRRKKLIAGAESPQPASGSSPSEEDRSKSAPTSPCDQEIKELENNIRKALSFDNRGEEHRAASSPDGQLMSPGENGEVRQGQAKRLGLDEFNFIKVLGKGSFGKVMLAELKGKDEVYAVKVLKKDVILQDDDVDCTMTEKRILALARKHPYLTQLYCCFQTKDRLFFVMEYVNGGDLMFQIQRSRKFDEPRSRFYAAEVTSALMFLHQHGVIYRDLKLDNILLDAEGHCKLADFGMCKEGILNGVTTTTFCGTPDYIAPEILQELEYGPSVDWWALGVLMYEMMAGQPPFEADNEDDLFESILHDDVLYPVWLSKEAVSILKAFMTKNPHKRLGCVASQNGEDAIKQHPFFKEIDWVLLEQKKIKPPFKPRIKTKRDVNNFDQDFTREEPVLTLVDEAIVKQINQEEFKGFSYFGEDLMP

[3] = molecular target: Insulin receptor (Homo sapiens) (UniProt P06213); test: Inhibition of human INSR catalytic domain expressed in baculovirus assessed as substrate phosphorylation using fluorescence-labelled peptides as substrate at 9 uM after 90 mins by microfluidic peptide phosphorylation assay
[4] = system: Tyrosine-protein kinase ABL1 (Homo sapiens), P00519 [T315I]; test: Inhibition of human truncated ABL T315I mutant expressed in baculovirus assessed as substrate phosphorylation using fluorescence-labelled peptides as substrate at 9 uM after 90 mins by microfluidic peptide phosphorylation assay
[5] = molecular target: Tyrosine-protein kinase Fer (Homo sapiens) (UniProt P16591); settings: 0.1 uM
Description: Inhibition of human FER catalytic domain expressed in baculovirus assessed as substrate phosphorylation using fluorescence-labelled peptides as substrate at 0.1 uM after 90 mins by microfluidic peptide phosphorylation assay

[6] = molecular target: Protein kinase C gamma type (Homo sapiens) (UniProt P05129); test: Inhibition of human truncated PKC gamma expressed in baculovirus assessed as substrate phosphorylation using fluorescence-labelled peptides as substrate at 0.1 uM after 90 mins by microfluidic peptide phosphorylation assay
[7] = molecular target: T2, Testis-specific serine/threonine-protein kinase 2 (Homo sapiens) (UniProt Q96PF2); settings: 0.1 uM
T2 sequence (whole entry): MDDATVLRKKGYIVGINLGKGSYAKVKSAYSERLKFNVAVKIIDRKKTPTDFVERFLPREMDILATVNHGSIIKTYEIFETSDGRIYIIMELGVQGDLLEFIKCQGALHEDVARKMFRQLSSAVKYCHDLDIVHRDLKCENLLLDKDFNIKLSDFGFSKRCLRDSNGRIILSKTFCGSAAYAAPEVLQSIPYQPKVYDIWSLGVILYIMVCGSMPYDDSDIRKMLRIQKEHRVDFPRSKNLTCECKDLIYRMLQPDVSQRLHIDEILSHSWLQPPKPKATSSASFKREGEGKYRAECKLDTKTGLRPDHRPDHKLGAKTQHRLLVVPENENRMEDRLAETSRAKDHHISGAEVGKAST
Description: Inhibition of human full length TSSK2 expressed in baculovirus assessed as substrate phosphorylation using fluorescence-labelled peptides as substrate at 0.1 uM after 90 mins by microfluidic peptide phosphorylation assay

[8] = molecular target: T3, Protein kinase C zeta type (Homo sapiens) (UniProt Q05513); test: Inhibition of human full length PKC zeta expressed in baculovirus assessed as substrate phosphorylation using fluorescence-labelled peptides as substrate at 0.1 uM after 90 mins by microfluidic peptide phosphorylation assay
T3 sequence (whole entry): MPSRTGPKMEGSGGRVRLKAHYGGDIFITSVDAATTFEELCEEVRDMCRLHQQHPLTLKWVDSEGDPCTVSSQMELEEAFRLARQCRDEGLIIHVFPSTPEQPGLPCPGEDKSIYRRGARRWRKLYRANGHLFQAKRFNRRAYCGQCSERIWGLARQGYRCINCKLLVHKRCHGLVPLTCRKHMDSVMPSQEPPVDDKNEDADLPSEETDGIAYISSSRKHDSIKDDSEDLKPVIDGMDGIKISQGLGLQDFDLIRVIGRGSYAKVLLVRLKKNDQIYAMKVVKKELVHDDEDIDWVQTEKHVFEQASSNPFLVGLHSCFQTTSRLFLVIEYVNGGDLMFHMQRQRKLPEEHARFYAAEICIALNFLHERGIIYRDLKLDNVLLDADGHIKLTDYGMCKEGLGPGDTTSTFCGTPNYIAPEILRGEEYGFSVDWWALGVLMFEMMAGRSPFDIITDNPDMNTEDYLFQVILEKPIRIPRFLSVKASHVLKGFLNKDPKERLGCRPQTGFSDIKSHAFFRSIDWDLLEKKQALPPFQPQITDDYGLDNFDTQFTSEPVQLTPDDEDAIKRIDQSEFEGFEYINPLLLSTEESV

[9] = molecular target: Tyrosine-protein kinase BTK (Homo sapiens) (UniProt Q06187); test: Inhibition of human full length BTK expressed in baculovirus assessed as substrate phosphorylation using fluorescence-labelled peptides as substrate at 95 uM after 90 mins by microfluidic peptide phosphorylation assay
[10] = molecular target: Hepatocyte growth factor receptor (Homo sapiens) (UniProt P08581); test: Inhibition of human MET cytoplasmic domain expressed in baculovirus assessed as substrate phosphorylation using fluorescence-labelled peptides as substrate at 70 uM after 90 mins by microfluidic peptide phosphorylation assay
[11] = molecular target: MAP kinase-activated protein kinase 2 (Homo sapiens) (UniProt P49137); test: Inhibition of human full length MAPKAPK2 expressed in baculovirus assessed as substrate phosphorylation using fluorescence-labelled peptides as substrate at 420 uM after 90 mins by microfluidic peptide phosphorylation assay
MAP kinase-activated protein kinase 2 (Homo sapiens), sequence (P49137 whole entry, looked up): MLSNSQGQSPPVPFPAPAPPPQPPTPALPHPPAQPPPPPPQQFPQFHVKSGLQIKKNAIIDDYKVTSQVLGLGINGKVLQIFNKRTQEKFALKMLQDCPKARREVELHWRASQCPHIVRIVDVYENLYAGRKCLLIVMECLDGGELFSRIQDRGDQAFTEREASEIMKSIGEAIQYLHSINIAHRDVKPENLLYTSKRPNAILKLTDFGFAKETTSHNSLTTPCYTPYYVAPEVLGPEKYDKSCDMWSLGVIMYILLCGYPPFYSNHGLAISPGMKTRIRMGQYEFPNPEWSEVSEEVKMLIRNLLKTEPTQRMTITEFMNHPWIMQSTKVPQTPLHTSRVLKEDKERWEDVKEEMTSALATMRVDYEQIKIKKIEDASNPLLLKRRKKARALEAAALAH

Hepatocyte growth factor receptor (Homo sapiens), sequence (P08581 whole entry, the tested form may be a part): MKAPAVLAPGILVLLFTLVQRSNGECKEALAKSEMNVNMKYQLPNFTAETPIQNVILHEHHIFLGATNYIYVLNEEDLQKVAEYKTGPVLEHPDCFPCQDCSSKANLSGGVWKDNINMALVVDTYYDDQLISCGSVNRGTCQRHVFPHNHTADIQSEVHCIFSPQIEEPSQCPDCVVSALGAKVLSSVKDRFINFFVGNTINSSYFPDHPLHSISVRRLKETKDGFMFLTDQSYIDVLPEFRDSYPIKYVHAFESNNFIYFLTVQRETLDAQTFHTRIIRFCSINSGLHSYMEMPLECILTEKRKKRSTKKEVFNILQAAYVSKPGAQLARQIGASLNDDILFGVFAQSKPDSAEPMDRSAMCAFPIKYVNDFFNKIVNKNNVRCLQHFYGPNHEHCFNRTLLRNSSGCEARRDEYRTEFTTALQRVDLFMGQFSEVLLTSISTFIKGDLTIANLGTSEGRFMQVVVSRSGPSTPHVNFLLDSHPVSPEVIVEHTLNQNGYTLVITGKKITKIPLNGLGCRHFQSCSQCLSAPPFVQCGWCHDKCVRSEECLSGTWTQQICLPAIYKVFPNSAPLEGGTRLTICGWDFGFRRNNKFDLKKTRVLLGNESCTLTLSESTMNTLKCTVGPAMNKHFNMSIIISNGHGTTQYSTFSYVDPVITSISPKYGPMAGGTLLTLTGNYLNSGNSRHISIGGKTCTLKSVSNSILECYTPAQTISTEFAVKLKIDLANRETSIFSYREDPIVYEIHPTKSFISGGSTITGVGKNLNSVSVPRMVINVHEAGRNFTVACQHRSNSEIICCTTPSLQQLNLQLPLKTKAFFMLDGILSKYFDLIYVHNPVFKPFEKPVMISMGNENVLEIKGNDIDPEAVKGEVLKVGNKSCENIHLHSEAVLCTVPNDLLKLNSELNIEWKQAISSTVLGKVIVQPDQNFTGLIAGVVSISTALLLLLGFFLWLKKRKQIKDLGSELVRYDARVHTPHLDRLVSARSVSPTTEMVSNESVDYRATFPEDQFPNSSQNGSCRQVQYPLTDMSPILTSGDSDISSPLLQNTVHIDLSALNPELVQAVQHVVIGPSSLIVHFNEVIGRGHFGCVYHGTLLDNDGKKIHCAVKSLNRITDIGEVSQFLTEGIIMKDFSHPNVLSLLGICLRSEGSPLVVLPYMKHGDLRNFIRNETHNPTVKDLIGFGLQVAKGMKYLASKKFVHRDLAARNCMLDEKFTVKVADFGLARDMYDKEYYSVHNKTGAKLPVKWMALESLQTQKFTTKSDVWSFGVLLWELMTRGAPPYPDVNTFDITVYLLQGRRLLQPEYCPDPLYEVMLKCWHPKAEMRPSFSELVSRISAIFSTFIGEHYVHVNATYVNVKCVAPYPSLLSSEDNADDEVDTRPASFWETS
Tyrosine-protein kinase BTK (Homo sapiens), sequence (Q06187 whole entry, the tested form may be a part): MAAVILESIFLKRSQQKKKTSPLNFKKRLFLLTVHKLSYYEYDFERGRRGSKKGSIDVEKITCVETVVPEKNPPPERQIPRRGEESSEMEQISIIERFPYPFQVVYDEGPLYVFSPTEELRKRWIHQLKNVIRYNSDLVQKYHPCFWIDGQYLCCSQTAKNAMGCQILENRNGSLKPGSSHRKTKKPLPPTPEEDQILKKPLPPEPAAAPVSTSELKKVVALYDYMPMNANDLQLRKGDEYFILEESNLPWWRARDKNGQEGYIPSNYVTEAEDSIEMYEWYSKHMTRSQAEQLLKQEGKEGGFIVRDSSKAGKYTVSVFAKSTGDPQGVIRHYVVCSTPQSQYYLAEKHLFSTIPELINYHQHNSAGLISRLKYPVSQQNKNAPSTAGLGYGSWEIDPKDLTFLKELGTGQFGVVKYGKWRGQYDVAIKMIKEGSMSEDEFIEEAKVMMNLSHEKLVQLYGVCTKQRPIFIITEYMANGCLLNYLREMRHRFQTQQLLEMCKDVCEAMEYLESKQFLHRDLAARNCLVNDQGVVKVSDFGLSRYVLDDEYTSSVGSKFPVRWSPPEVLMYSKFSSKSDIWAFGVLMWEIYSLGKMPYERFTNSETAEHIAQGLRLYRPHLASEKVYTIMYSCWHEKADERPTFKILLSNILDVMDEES
Tyrosine-protein kinase Fer (Homo sapiens), sequence (P16591 whole entry, looked up, the tested form may be a part): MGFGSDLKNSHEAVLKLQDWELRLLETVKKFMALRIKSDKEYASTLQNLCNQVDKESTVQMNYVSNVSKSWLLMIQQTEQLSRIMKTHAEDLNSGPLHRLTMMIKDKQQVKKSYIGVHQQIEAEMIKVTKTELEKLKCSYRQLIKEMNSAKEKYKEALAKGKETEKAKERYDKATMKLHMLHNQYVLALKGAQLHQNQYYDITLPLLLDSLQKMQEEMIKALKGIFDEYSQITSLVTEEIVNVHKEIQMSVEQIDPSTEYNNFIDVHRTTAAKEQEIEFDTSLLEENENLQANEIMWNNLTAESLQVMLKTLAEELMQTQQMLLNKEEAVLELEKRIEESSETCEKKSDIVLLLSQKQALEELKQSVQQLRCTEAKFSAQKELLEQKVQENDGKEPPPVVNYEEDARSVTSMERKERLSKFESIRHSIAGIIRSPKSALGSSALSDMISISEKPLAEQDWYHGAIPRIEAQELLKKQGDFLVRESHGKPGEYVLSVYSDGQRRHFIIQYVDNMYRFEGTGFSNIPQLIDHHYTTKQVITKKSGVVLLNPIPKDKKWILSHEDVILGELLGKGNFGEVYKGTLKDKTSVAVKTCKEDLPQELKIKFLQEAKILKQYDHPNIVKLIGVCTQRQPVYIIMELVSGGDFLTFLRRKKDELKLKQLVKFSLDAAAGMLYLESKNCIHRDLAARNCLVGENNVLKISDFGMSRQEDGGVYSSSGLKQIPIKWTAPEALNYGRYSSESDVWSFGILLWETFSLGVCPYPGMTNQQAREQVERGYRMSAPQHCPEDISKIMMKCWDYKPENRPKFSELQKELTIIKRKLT

Clc1ccc(C2(c3ccc(-c4ncnc5[nH]cnc45)cc3)CCNCC2)cc1
inhibition [1]: 9.5%

COC(=O)c1cnc(Nc2cnc(C#N)cn2)cc1NCC1CCNCC1
inhibition [2]: 1%

NCC1CN(c2ncnc3[nH]c4cnccc4c23)CCO1 (stereo unspecified)
inhibition [3]: 2.5%
inhibition [4]: 10%

C[C@H](CN(C)C)Oc1nc(Nc2cc3cccc(Cl)c3cn2)cnc1C#N
inhibition [5]: 0%
inhibition [6]: 6%
inhibition [7]: 0%
inhibition [8]: 19%

NCCc1ccc(-c2ncnc3[nH]cnc23)cc1
inhibition [9]: 17%

CNCc1ccc(-c2ncnc3[nH]cnc23)cc1
inhibition [10]: 0%

c1nc(N2CCOCC2)c2nc[nH]c2n1
inhibition [11]: 74%
